Measurements reported in patent US11312723B2, “Pyranopyrazole and pyrazolopyridine immunomodulators for treatment of autoimmune diseases” (The Rockefeller University, priority 2017, dated 2022).

The compounds below were run against Human FXIIa (Homo sapiens (Human), UniProt P00748) (assay: Factor XIIa (FXIIa) inhibitory activity, chromogenic substrate (Pefachrome XIIa) cleavage). Conditions: 10 min pre-incubation, Pefachrome XIIa 400 μM.
Assay type: biochemical
Description: Factor XIIa (FXIIa) Inhibitory Activity:
In a 96-well clear bottom plate, 80 μl of assay buffer was added to each well. Assay buffer consists of 0.5× Hank's Balanced Salt Solution (Invitrogen), buffered with 25 mM HEPES pH 7.4 (Invitrogen) and 0.5× Tris-buffered saline with Tween-20 0.05% (Santa Cruz Biotechnology). Test compounds were first dissolved in DMSO (Sigma) and then 4 μl were added to test wells containing assay buffer. Serial dilutions using an automated multi-channel pipette were used to generate a concentration range of approximately 1-100 μM. Human FXIIa (Enzyme Research Labs) was diluted in assay buffer to a final concentration of 12.5 nM. 80 μl of this enzyme solution was added to the assay wells. The enzyme/compound mixtures were incubated for 10 minutes at room temperature. Chromogenic substrate (Pefachrome XIIa; Enzyme Research Labs) was added to assay wells at a final concentration of 400 μM. The assay plate was spun for 1 minute at 1500 g and then read at 37° C. in a SpectraMax M2 plate reader (λ=405 nm). Activity was quantified as the rate of change in absorbance, which corresponds to the rate of substrate cleavage. IC50 values were determined as the concentration of inhibitor that produced 50% of the rate of change of control wells without any inhibitor. For compounds with activity <1 μM, the assay was repeated with a lower concentration range, typically from 10-1000 nM.

Sequence of Human FXIIa (P00748 373-615): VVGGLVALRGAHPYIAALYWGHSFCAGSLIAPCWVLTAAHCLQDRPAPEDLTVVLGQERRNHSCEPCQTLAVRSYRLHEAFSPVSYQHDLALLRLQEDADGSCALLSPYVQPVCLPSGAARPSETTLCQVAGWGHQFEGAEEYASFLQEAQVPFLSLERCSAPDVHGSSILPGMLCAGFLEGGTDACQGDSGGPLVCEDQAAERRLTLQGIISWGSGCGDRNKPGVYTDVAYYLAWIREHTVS
Sequence of Human FXIIa (P00748 20-372 partner): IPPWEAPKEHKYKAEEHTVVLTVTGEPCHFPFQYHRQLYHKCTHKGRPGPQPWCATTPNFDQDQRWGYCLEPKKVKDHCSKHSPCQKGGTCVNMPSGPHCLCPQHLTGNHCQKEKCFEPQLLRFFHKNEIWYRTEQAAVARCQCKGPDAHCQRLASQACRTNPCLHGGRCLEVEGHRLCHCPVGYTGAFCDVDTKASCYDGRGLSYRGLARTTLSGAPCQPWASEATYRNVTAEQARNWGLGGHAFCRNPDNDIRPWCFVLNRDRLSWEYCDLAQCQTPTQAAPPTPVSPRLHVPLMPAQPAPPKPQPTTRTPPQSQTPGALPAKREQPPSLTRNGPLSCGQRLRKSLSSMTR

Row | SMILES | IC50 [µM]
1 | Cc1cccc2c1NCC[C@@H]2C(=O)n1nc2c(c1N)CCN(S(=O)(=O)N(C)C)C2 (single isomer, unassigned) [Example 180, (S*)-3-amino-N,N-dimethyl-2-(8-methyl-1,2,3,4-tetrahydro-quinoline-4-carbonyl)-4,5-dihydro-2H-pyrazolo[3,4-c]pyridine-6(7H)-sulfonamide] | 0.04
2 | Cc1cccc2c1NCC[C@@H]2C(=O)n1nc2c(c1N)CCN(S(=O)(=O)C1CCC1)C2 (single isomer, unassigned) [Example 182, (S*)-(3-amino-6-(cyclobutyl-sulfonyl)-4,5,6,7-tetrahydro-pyrazolo[3,4-c]pyridin-2-yl)(8-methyl-1,2,3,4-tetrahydro-quinolin-4-yl)methanone] | 0.04
3 | Cc1cccc2c1NCC[C@H]2C(=O)n1nc2c(c1N)CCN(S(=O)(=O)C1CCC1)C2 (single isomer, unassigned) [Example 183, (R*)-(3-amino-6-(cyclobutyl-sulfonyl)-4,5,6,7-tetrahydro-pyrazolo[3,4-c]pyridin-2-yl)(8-methyl-1,2,3,4-tetrahydro-quinolin-4-yl)methanone] | 35
4 | Cc1cccc2c1NCC[C@@H]2C(=O)n1nc2c(c1N)CCN(S(=O)(=O)C1COC1)C2 (single isomer, unassigned) [Example 185, (S*)-(3-amino-6-(oxetan-3-ylsulfonyl)-4,5,6,7-tetrahydro-pyrazolo[3,4-c]pyridin-2-yl)(8-methyl-1,2,3,4-tetrahydro-quinolin-4-yl)methanone] | 0.2
5 | Cc1cccc2c1NCC[C@H]2C(=O)n1nc2c(c1N)CCN(S(=O)(=O)C1COC1)C2 (single isomer, unassigned) [Example 186, (R*)-(3-amino-6-(oxetan-3-ylsulfonyl)-4,5,6,7-tetrahydro-pyrazolo[3,4-c]pyridin-2-yl)(8-methyl-1,2,3,4-tetrahydro-quinolin-4-yl)methanone] | 40
6 | Cc1cccc2c1NCC[C@@H]2C(=O)n1nc2c(c1N)COCC2 (single isomer, unassigned) [Example 190, (S*)-(3-amino-6,7-dihydropyrano[4,3-c]pyrazol-2(4H)-yl)(8-methyl-1,2,3,4-tetrahydro-quinolin-4-yl)methanone] | 0.05
7 | Cc1cc(F)cc2c1NCC[C@H]2C(=O)n1nc2c(c1N)COCC2 (single isomer, unassigned) [Example 192, (R*)-(3-amino-6,7-dihydropyrano[4,3-c]pyrazol-2(4H)-yl)(6-fluoro-8-methyl-1,2,3,4-tetrahydro-quinolin-4-yl)methanone] | 12.5
8 | Cc1cc(F)cc2c1NCC[C@@H]2C(=O)n1nc2c(c1N)COCC2 (single isomer, unassigned) [Example 193, (S*)-(3-amino-6,7-dihydropyrano[4,3-c]pyrazol-2(4H)-yl)(6-fluoro-8-methyl-1,2,3,4-tetrahydro-quinolin-4-yl)methanone] | 0.04
9 | Nc1c2c(nn1C(=O)[C@@H]1CCNc3ccc(F)cc31)COCC2 (single isomer, unassigned) [Example 197, (R*)-(3-amino-4,5-dihydropyrano[3,4-c]pyrazol-2(7H)-yl)(6-fluoro-1,2,3,4-tetrahydro-quinolin-4-yl)methanone] | 40
10 | Cc1cccc2c1NCC[C@H]2C(=O)n1nc2c(c1N)CCOC2 (single isomer, unassigned) [Example 199, (R*)-(3-amino-4,5-dihydropyrano[3,4-c]pyrazol-2(7H)-yl)(8-methyl-1,2,3,4-tetrahydro-quinolin-4-yl)methanone] | 80
11 | Nc1c2c(nn1C(=O)[C@@H]1CCNc3c(Cl)cccc31)COCC2 (single isomer, unassigned) [Example 201, (R*)-(3-amino-4,5-dihydropyrano[3,4-c]pyrazol-2(7H)-yl)(8-chloro-1,2,3,4-tetrahydro-quinolin-4-yl)methanone] | 16
12 | Nc1c2c(nn1C(=O)[C@H]1CCNc3c(Cl)cccc31)COCC2 (single isomer, unassigned) [Example 202, (S*)-(3-amino-4,5-dihydropyrano[3,4-c]pyrazol-2(7H)-yl)(8-chloro-1,2,3,4-tetrahydro-quinolin-4-yl)methanone] | 0.09
13 | Cc1cccc2c1NCC[C@@H]2C(=O)n1nc2c(c1N)CCN(CCO)C2 (single isomer, unassigned) [Example 204, (S*)-(3-amino-6-(2-hydroxyethyl)-4,5,6,7-tetrahydro-2H-pyrazolo[3,4-c]pyridin-2-yl)(8-methyl-1,2,3,4-tetrahydro-quinolin-4-yl)methanone] | 0.04
14 | Cc1cccc2c1NCC[C@H]2C(=O)n1nc2c(c1N)CCN(CCO)C2 (single isomer, unassigned) [Example 205, (R*)-(3-amino-6-(2-hydroxyethyl)-4,5,6,7-tetrahydro-2H-pyrazolo[3,4-c]pyridin-2-yl)(8-methyl-1,2,3,4-tetrahydro-quinolin-4-yl)methanone] | > 25
15 | Cc1cc2c(C(=O)n3nc4c(c3N)CN(C(=O)OC(C)(C)C)CC4)cccc2[nH]1 [Example 1, tert-butyl 3-amino-2-[(2-methyl-1H-indol-4-yl)carbonyl]-4,5,6,7-tetrahydro-2H-pyrazolo[4,3-c]pyridin-5-carboxylate] | 0.08
16 | Cc1cc2c(C(=O)n3nc4c(c3N)CNCC4)cccc2[nH]1 [Example 2, (3-amino-4,5,6,7-tetrahydropyrazolo[4,3-c]pyridin-2-yl)(2-methyl-1H-indol-4-yl)methanone] | 0.06
17 | CCc1cc2c([nH]1)CCCC2C(=O)n1nc(N)c2c1CCN(C(=O)OCc1ccccc1)C2 (stereo not shown) [Example 5, benzyl 3-amino-1-(2-ethyl-4,5,6,7-tetrahydro-1H-indole-4-carbonyl)-6,7-dihydro-1H-pyrazolo[4,3-c]pyridine-5(4H)-carboxylate] | > 40
18 | Cc1cc2c(C(=O)n3nc(N)c4c3CN(C(=O)OC(C)(C)C)CC4)cccc2[nH]1 [Example 8, tert-butyl 3-amino-1-(2-methyl-1H-indole-4-carbonyl)-4,5-dihydro-1H-pyrazolo[3,4-c]pyridine-6(7H)-carboxylate] | 50
19 | Cc1cc2c(C(=O)n3nc4c(c3N)CCN(Cc3ccccc3)C4)cccc2[nH]1 [Example 10, (3-amino-6-benzyl-4,5,6,7-tetrahydropyrazolo[3,4-c]pyridin-2-yl)(2-methyl-1H-indol-4-yl)methanone] | 0.03
20 | Cc1cc2c(C(=O)n3nc(N)c4c3CN(Cc3ccccc3)CC4)cccc2[nH]1 [Example 11, (3-amino-6-benzyl-4,5,6,7-tetrahydropyrazolo[3,4-c]pyridin-1-yl)(2-methyl-1H-indol-4-yl)methanone] | 50
21 | Cc1ccc2c(c1)C(C(=O)n1nc(N)c3c1CN(S(C)(=O)=O)CC3)CCN2 (stereo not shown) [Example 13, (3-amino-6-(methylsulfonyl)-4,5,6,7-tetrahydropyrazolo[3,4-c]pyridin-1-yl)(6-methyl-1,2,3,4-tetrahydroquinolin-4-yl)methanone] | > 90
22 | CS(=O)(=O)N1CCc2c(N)nn(C(=O)C3CCNc4ccc(F)cc43)c2C1 (stereo not shown) [Example 17, (3-amino-6-(methylsulfonyl)-4,5,6,7-tetrahydropyrazolo[3,4-c]pyridin-1-yl)(6-fluoro-1,2,3,4-tetrahydroquinolin-4-yl)methanone] | 30
23 | COc1ccc2c(c1)C(C(=O)n1nc3c(c1N)CCN(S(C)(=O)=O)C3)CCN2 (stereo not shown) [Example 22, (3-amino-6-(methylsulfonyl)-4,5,6,7-tetrahydropyrazolo[3,4-c]pyridin-2-yl)(6-methoxy-1,2,3,4-tetrahydroquinolin-4-yl)methanone] | 1.4
24 | COc1ccc2c(c1)C(C(=O)n1nc(N)c3c1CN(S(C)(=O)=O)CC3)CCN2 (stereo not shown) [Example 23, (3-amino-6-(methylsulfonyl)-4,5,6,7-tetrahydropyrazolo[3,4-c]pyridin-1-yl)(6-methoxy-1,2,3,4-tetrahydroquinolin-4-yl)methanone] | > 60
25 | Cn1cc2c(c1)C(C(=O)n1nc(N)c3c1CN(S(C)(=O)=O)CC3)CCC2 (stereo not shown) [Example 27, (3-amino-6-(methylsulfonyl)-4,5,6,7-tetrahydropyrazolo[3,4-c]pyridin-1-yl)(2-methyl-4,5,6,7-tetrahydro-2H-isoindol-4-yl)methanone] | 75
26 | Nc1nn(C(=O)C2CCNc3ccc(F)cc32)c2c1CCN(c1ccccc1)C2 (stereo not shown) [Example 29, (3-amino-6-phenyl-4,5,6,7-tetrahydropyrazolo[3,4-c]pyridin-1-yl)(6-fluoro-1,2,3,4-tetrahydroquinolin-4-yl)methanone] | > 60
27 | CCc1ccc2c(c1)C(C(=O)n1nc(N)c3c1CN(S(C)(=O)=O)CC3)CCN2 (stereo not shown) [Example 31, (3-amino-6-(methylsulfonyl)-4,5,6,7-tetrahydropyrazolo[3,4-c]pyridin-1-yl)(6-ethyl-1,2,3,4-tetrahydroquinolin-4-yl)methanone] | 40
28 | CS(=O)(=O)N1CCc2c(N)nn(C(=O)C3CCNc4c(F)cccc43)c2C1 (stereo not shown) [Example 38, (3-amino-6-(methylsulfonyl)-4,5,6,7-tetrahydropyrazolo[3,4-c]pyridin-1-yl)(8-fluoro-1,2,3,4-tetrahydroquinolin-4-yl)methanone] | 70
